Several values for one entry are separate records, joined by “and”; a condition that tells them apart may be missing. Identical values can stand only once.
| Compound | melting point |
| --- | --- |
| Clc1nc(Cl)nc(Cl)n1 [2,4,6-Trichloro-1,3,5-triazine] | 146 °C |
| Oc1c(Br)cc(Br)cc1Br [2,4,6-tribromophenol] | 89 °C |
| OB(O)c1c(F)cc(F)cc1F [2,4,6-trifluorobenzeneboronic acid] | 235 °C |
| Oc1ccc(Cl)cc1Cl [2,4-Dichlorophenol] | 42.5 °C |
| Cc1ccc([N+](=O)[O-])c(C)c1 [2,4-Dimethyl-1-nitrobenzene] | 7 °C |
| CCOC(=O)C1=C(C)C(C(=O)OCC)N=C1C (stereo unspecified) [2,4-Dimethyl-3,5-dicarbethoxypyrrole] | 137 °C |
| Cc1ccc(N)c(C)c1 [2,4-Dimethylaniline] | 16 °C |
| O=Cc1ccc(Cl)cc1Cl [2,4-dichlorobenzaldehyde] | 73 °C |
| COc1ccc(/C=C/[N+](=O)[O-])c(OC)c1 [2,4-dimethoxy-beta-nitrostyrene] | 100 °C |
| Cc1ccc(O)c(C)c1 [2,4-dimethylphenol] | 27 °C |
| O=Cc1ccc([N+](=O)[O-])cc1[N+](=O)[O-] [2,4-dinitrobenzaldehyde] [listing 1 of 2 here] | 66 °C |
| O=Cc1ccc([N+](=O)[O-])cc1[N+](=O)[O-] [2,4-dinitrobenzaldehyde] [listing 2 of 2 here] | 67 °C |
| CC(=O)CC(C)=O [2,4-pentanedione] | -23 °C |
| CC(C)(C)c1cc(O)c(C(C)(C)C)cc1O [2,5-Di-tert-butylbenzene-1,4-diol] | 218 °C |
| O=C1C=C(Cl)C(=O)C=C1Cl [2,5-Dichloro-1,4-benzoquinone] | 162 °C |
| Nc1ccc(N)nc1 [2,5-diaminopyridine] | 96 °C |
| Oc1cc(Cl)ccc1Cl [2,5-dichlorophenol] | 57 °C |
| NNc1cc(Cl)ccc1Cl [2,5-dichlorophenylhydrazine] | 104 °C |
| O=C(O)c1cc(Cl)sc1Cl [2,5-dichlorothiophene-3-carboxylic acid] | 148 °C |
| Cc1ccc(C)c(N)c1 [2,5-dimethylaniline] | 15 °C |
| N#Cc1c(Cl)cccc1Cl [2,6-Dichlorobenzonitrile] | 144 °C |
| O=[N+]([O-])c1cc(I)c(O)c(I)c1 [2,6-Diiodo-4-nitrophenol] | 157 °C |
| CC(C)(C)c1cccc(C(C)(C)C)c1O [2,6-di-tert-butylphenol] | 37 °C |
| Cc1c(N)cccc1N [2,6-diaminotoluene] | 105 °C |

| Compound | melting point |
| --- | --- |
| Nc1c(Br)cccc1Br [2,6-dibromoaniline] | 81 °C |
| O=C(O)c1cc(F)c(Cl)nc1Cl [2,6-dichloro-5-fluoronicotinic acid] | 154 °C |
| O=Cc1c(Cl)cccc1Cl [2,6-dichlorobenzaldehyde] [listing 1 of 2 here] | 71 °C and 71.5 °C |
| O=Cc1c(Cl)cccc1Cl [2,6-dichlorobenzaldehyde] [listing 2 of 2 here] | 71 °C |
| O=C(O)Cc1c(Cl)cccc1Cl [2,6-dichlorophenylacetic acid] | 160 °C |
| CC(C)c1cccc(C(C)C)c1O [2,6-diisopropylphenol] | 18 °C |
| COc1ccc(B(O)O)c(OC)n1 [2,6-dimethoxypyridine-3-boronic acid] | 129 °C |
| CC(C)CCCC(C)(C)O [2,6-dimethyl-2-heptanol] | -10 °C |
| Cc1cccc(C)c1N [2,6-dimethylaniline] | 11 °C |
| [C-]#[N+]c1c(C)cccc1C [2,6-dimethylphenyl isocyanide] | 74 °C |
| Cc1cncc(C)n1 [2,6-dimethylpyrazine] | 41 °C |
| Nc1c([N+](=O)[O-])cccc1[N+](=O)[O-] [2,6-dinitroaniline] | 133 °C |
| COc1ccc(CCN)cc1OC [2-(3,4-dimethoxyphenyl)ethylamine] | 11 °C |
| Nc1ccccc1N1CCOCC1 [2-(4-morpholinyl)aniline] | 97 °C |
| CN(C)CCO [2-(Dimethylamino)ethanol] | -70 °C |
| OCc1ccccc1O[C@@H]1O[C@H](CO)[C@@H](O)[C@H](O)[C@H]1O [2-(Hydroxymethyl)phenyl beta-D-glucopyranoside] | 199 °C |
| OCc1ccccc1OC1OC(CO)C(O)C(O)C1O (stereo unspecified) [2-(Hydroxymethyl)phenyl hexopyranoside] | 199 °C |
| COc1ccc(C=C[N+](=O)[O-])cc1OCc1ccccc1 [2-(benzyloxy)-1-methoxy-4-(2-nitrovinyl)benzene] | 120 °C |
| CN(C)CCO [2-(dimethylamino)ethanol] | -60 °C |
| CCNCCO [2-(ethylamino)ethanol] | -9 °C |
| CS(=O)(=O)c1cccs1 [2-(methylsulfonyl)thiophene] | 48 °C |
| NC(=O)c1ccccc1OC(F)(F)F [2-(trifluoromethoxy)benzamide] | 154 °C |
| OB(O)c1ccccc1OC(F)(F)F [2-(trifluoromethoxy)benzeneboronic acid] | 119 °C |

The remaining lines, values ahead:

| melting point | Compound |
| --- | --- |
| 124 °C | Cc1cc(C)c(B(O)O)c(C)c1 [2,4,6-trimethylbenzeneboronic acid] |
| 45 °C | Cc1cc(C)c(N=C=O)c(C)c1 [2,4,6-trimethylphenyl isocyanate] |
| 136 °C | O=Cc1ccc(O)cc1O [2,4-Dihydroxybenzaldehyde] |
| 226 °C | O=C(O)c1ccc(O)cc1O [2,4-Dihydroxybenzoic Acid] |
| 160 °C | O=[N+]([O-])c1ccc(Nc2ccccc2)c([N+](=O)[O-])c1 [2,4-Dinitro-N-phenylaniline] |
| 244 °C | OB(O)c1ccc(Cl)cc1Cl [2,4-dichlorobenzeneboronic acid] |
| 162 °C | O=C(O)c1ccc(Cl)cc1Cl [2,4-dichlorobenzoic acid] |
| 10 °C | O=[N+]([O-])c1ccc(F)cc1F [2,4-difluoro-1-nitrobenzene] |
| 249 °C | OB(O)c1ccc(F)cc1F [2,4-difluorobenzeneboronic acid] |
| 136 °C | O=Cc1ccc(O)cc1O [2,4-dihydroxybenzaldehyde] |
| 35 °C | COc1ccc(N)c(OC)c1 [2,4-dimethoxyaniline] |
| 107 °C | COc1ccc(C=NO)c(OC)c1 [2,4-dimethoxybenzaldoxime] |
| 118 °C | COc1ccc(B(O)O)c(OC)c1 [2,4-dimethoxybenzeneboronic acid] |
| 205 °C | O=C(O)c1cc(O)ccc1O [2,5-Dihydroxybenzoic acid] [listing 1 of 2 here] |
| 206 °C | O=C(O)c1cc(O)ccc1O [2,5-Dihydroxybenzoic acid] [listing 2 of 2 here] |
| 98.3 °C | Cc1ccc(C)c(-c2ccc([N+](=O)[O-])cc2)c1 [2,5-Dimethyl-4'-nitrobiphenyl] |
| 220 °C | O=C(O)c1cc(Cl)cc([N+](=O)[O-])c1Cl [2,5-dichloro-3-nitrobenzoic acid] |
| 69 °C | Cc1cc(Cl)c(C)cc1Cl [2,5-dichloro-p-xylene] |
| 130 °C | N#Cc1cc(Cl)ccc1Cl [2,5-dichlorobenzonitrile] |
| 5 °C | Cc1cc(Cl)ccc1Cl [2,5-dichlorotoluene] |
| 200 °C and 205 °C | O=C(O)c1cc(O)ccc1O [2,5-dihydroxybenzoic acid] |
| 205 °C | O=C(O)c1cc(O)ccc1O [2,5-dihydroxybenzoic_acid] |
| 147 °C | COc1ccc(OC)c(S(N)(=O)=O)c1 [2,5-dimethoxybenzenesulfonamide] |
| 20 °C | COc1ccc(OC)c(C)c1 [2,5-dimethoxytoluene] |
| 89 °C | Cc1cc(C=O)c(C)n1-c1ccccc1 [2,5-dimethyl-1-phenylpyrrole-3-carboxaldehyde] |

| melting point | Compound |
| --- | --- |
| 50 °C | Cc1ccc(C)n1-c1ccccc1 [2,5-dimethyl-1-phenylpyrrole] |
| 180 °C | Cc1ccc(C)c(B(O)O)c1 [2,5-dimethylbenzeneboronic acid] |
| 40 °C | Cc1ccc2sc(C)nc2c1 [2,5-dimethylbenzothiazole] |
| 130 °C | Cc1ccc(C)c(/C=C/C(=O)O)c1 [2,5-dimethylcinnamic acid] |
| 74.8 °C and 76 °C | Cc1ccc(C)c(O)c1 [2,5-dimethylphenol] |
| 128 °C | Cc1ccc(C)c(CC(=O)O)c1 [2,5-dimethylphenylacetic acid] |
| 140 °C | c1ccc(-c2nnc(-c3ccccc3)o2)cc1 [2,5-diphenyl-1,3,4-oxadiazole] |
| 123 °C | Cc1cc(CO)c(O)c(CO)c1 [2,6-bis(hydroxymethyl)-p-cresol] |
| 113 °C | Cc1cc(Cl)nc(Cl)c1C#N [2,6-dichloro-4-methylnicotinonitrile] |
| 2 °C | Cc1c(Cl)cccc1Cl [2,6-dichlorotoluene] |
| -54 °C | CC(C)c1cccc(C(C)C)c1N [2,6-diisopropylaniline] |
| 153 °C | COc1ccc2cc(OC)ccc2c1 [2,6-dimethoxynaphthalene] |
| 40 °C | COc1cccc(OC)c1C [2,6-dimethoxytoluene] |
| 46 °C | Cc1cccc(C)c1O [2,6-dimethylphenol] |
| 186 °C | Oc1ccc2ccc(O)cc2c1 [2,7-dihydroxynaphthalene] |
| 270 °C | CC(C)(C)C(=O)Nc1ccccc1B(O)O [2-(2,2,2-trimethylacetamido)benzeneboronic acid] |
| 270 °C | O=C1CCC(N2C(=O)c3ccccc3C2=O)C(=O)N1 (stereo unspecified) [2-(2,6-Dioxopiperidin-3-yl)-1H-isoindole-1,3(2H)-dione] |
| 160 °C | Cc1ncc([N+](=O)[O-])n1CCO [2-(2-Methyl-5-nitro-1H-imidazol-1-yl)ethanol] |
| 107 °C | Nc1ccccc1NNc1ccccc1 [2-(2-phenylhydrazino)aniline] |
| 77.5 °C | CC(C)Cc1ccc(C(C)C(=O)O)cc1 (stereo unspecified) [2-(4-Isobutylphenyl)propanoic acid] |
| 156 °C | O=C(O)CSc1cccc2cccc(Cl)c12 [2-(8-chloro-1-naphthylthio)acetic acid] |
| 92 °C | Cc1ccccc1-c1ccccc1P(C(C)(C)C)C(C)(C)C [2-(di-tert-butylphosphino)-2'-methylbiphenyl] |
| 52 °C | Cc1ccc(S(=O)(=O)CCO)cc1 [2-(p-toluenesulfonyl)ethanol] |
| 55 °C | Cc1ccc(Oc2ccccc2C=O)cc1 [2-(p-tolyloxy)benzaldehyde] |

— the Bradley open melting point set (2014)
